Measured values reported in PMC3264873 (Pharmaceutical Research, 2011).
Values joined by “and” are separate entries in the source; they are usually repeats but may differ in a detail not shown here. Equal values may be shown once. Read-outs that look alike come from different tables or passages of the source. Each block holds one compound with its values, some of them ahead of it. Starred links: 1 amine or outer side, 2 acyl side, 3 side chain; linkers in the order of their positions; H or OH if unused. Positions of bridges follow the written chain, without caps; N, C: chain ends. Non-standard residues stand in square brackets, D forms with d. Residues, ends and D or L forms follow the SMILES beside them. Trp(2-yl) = O=C([C@H](Cc1c([*:3])[nH]c2ccccc12)N[*:1])[*:2]; Leu(4R-OH,5-OH) = C[C@](O)(CO)C[C@H](N)C(=O)O; cisHyp = O=C(O)[C@@H]1C[C@H](O)CN1

Tests used:
OATP1B1 [1] = target: T1, OATP1B1 (Homo sapiens, UniProt Q9Y6L6); assay: Screening for inhibition of OATP1B1-mediated estradiol-17β-glucuronide uptake; settings: for Classification as OATP1B1 inhibitor (more than 50% inhibition of E17βG uptake): 20 μM test compound; for inhibition at 5 min, 100 µM: human
T1 sequence (Q9Y6L6 1-691): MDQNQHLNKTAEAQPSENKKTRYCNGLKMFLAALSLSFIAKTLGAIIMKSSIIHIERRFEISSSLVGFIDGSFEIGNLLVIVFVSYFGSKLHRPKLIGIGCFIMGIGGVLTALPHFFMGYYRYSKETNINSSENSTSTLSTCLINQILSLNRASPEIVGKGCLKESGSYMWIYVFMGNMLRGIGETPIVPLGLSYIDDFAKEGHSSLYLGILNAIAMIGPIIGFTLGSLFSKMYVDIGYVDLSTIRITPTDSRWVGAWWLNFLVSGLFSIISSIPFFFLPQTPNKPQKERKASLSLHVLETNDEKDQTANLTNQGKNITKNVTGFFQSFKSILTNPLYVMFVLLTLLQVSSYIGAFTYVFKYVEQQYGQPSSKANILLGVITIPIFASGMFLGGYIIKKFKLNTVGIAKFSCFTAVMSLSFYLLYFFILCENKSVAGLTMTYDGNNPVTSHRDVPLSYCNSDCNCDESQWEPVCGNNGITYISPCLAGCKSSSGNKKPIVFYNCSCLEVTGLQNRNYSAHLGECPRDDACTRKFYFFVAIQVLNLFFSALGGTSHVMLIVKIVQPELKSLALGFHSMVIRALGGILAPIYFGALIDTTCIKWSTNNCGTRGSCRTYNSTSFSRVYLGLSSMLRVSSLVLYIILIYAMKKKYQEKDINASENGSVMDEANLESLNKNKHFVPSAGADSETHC

OATP1B1 [2] = target: T1, OATP1B1; assay: Concentration-dependent inhibition of OATP1B1-mediated atorvastatin uptake; format: cell-based
OATP1B1 [3] = target: T1, OATP1B1; assay: Calculation of R-values; settings: for R-value E: ka = 0.03, Fa published value (lopinavir Fa = 1); for Range of the eight R-values A–H: all eight calculation variants; for Average (mean) R-value: mean of the eight R-values A–H
OATP1B1 [4] = target: T1, OATP1B1; settings: IC50 from another study and cell system; ref [3]; cited from earlier work
[5] = cited from earlier work; for Imax, maximum systemic plasma concentration of the inhibitor: amprenavir recalculated from fosamprenavir data, ref [23]–[28]; for Fa, fraction of the inhibitor dose absorbed (maximum oral bioavailability): ref [23]–[25]

Classification as OATP1B1 inhibitor (more than 50% inhibition of E17βG uptake) (OATP1B1 [1]): inhibitors
SMILES: C[C@H](CCC(=O)NCC(=O)O)[C@H]1CC[C@H]2[C@@H]3CC[C@@H]4C[C@H](O)CC[C@]4(C)[C@H]3C[C@H](O)[C@]12C [Glycodeoxycholate]

inhibition at 5 min, 100 µM (OATP1B1 [1]; pH 7.4, Inhibition of E17βG uptake, 100 μM test compound (data not shown)): 32%
SMILES: CC1(C)S[C@@H]2[C@H](NC(=O)Cc3ccccc3)C(=O)N2[C@H]1C(=O)O [Penicillin G]

Classification as OATP1B1 inhibitor (more than 50% inhibition of E17βG uptake) (OATP1B1 [1]): classified as OATP1B1 inhibitors
SMILES: CN(CCOc1ccc(CC2SC(=O)NC2=O)cc1)c1ccccn1 (stereo not shown) [Rosiglitazone]

Classification as OATP1B1 inhibitor (more than 50% inhibition of E17βG uptake) (OATP1B1 [1]): inhibitors
SMILES: CC[C@]1(O)C[C@@H]2CN(CCc3c([nH]c4ccccc34)[C@@](C(=O)OC)(c3cc4c(cc3OC)N(C)[C@H]3[C@@](O)(C(=O)OC)[C@H](OC(C)=O)[C@]5(CC)C=CCN6CC[C@]43[C@@H]65)C2)C1 [Vinblastine]

IC50 (OATP1B1 [2]): 0.74 µM
Ki (OATP1B1 [2]): 0.32 µM
R-value B (OATP1B1 [3]): 1.76
R-value C (OATP1B1 [3]): 2.56
R-value D (OATP1B1 [3]): 2.56
R-value F (OATP1B1 [3]): 2.74
R-value G (OATP1B1 [3]): 4.58
R-value H (OATP1B1 [3]): 4.58
R-value E (OATP1B1 [3]; Eq. 3 (Ki)): 2.74
Range of the eight R-values A–H (OATP1B1 [3]): 1.76–4.58
Average (mean) R-value (OATP1B1 [3]): 2.91
SMILES: Cc1cccc(C)c1OCC(=O)N[C@@H](Cc1ccccc1)[C@@H](O)C[C@H](Cc1ccccc1)NC(=O)[C@H](C(C)C)N1CCCNC1=O [Lopinavir]
R-value B calculated in the literature (OATP1B1 [4]): 9.2

Classification as OATP1B1 inhibitor (more than 50% inhibition of E17βG uptake) (OATP1B1 [1]): inhibitors
SMILES: CCC[C@@]1(CCc2ccccc2)CC(O)=C([C@H](CC)c2cccc(NS(=O)(=O)c3ccc(C(F)(F)F)cn3)c2)C(=O)O1 [Tipranavir]

SMILES: C[C@@H]1NC(=O)[C@H](C[C@@](C)(O)CO)NC(=O)[C@@H]2Cc3c([nH]c4ccccc34)SC[C@H](NC(=O)[C@@H]([C@H](C)O)NC1=O)C(=O)N1C[C@@H](O)C[C@H]1C(=O)N[C@@H](C)C(=O)N2 [Phalloidin] (cyclo(A[dT]C[cisHyp]A[Trp(2-yl)][Leu(4R-OH,5-OH)]); thioether 3-6)
Classification as OATP1B1 inhibitor (more than 50% inhibition of E17βG uptake) (OATP1B1 [1]): not identified as inhibitors
inhibition at 5 min, 100 µM (OATP1B1 [1]; pH 7.4): 49%

IC50 (OATP1B1 [2]): 1.61 µM
Ki (OATP1B1 [2]): 0.91 µM
R-value B (OATP1B1 [3]): 2.38
R-value C (OATP1B1 [3]): 3.63
R-value D (OATP1B1 [3]): 4.68
R-value F (OATP1B1 [3]): 3.43
R-value G (OATP1B1 [3]): 5.64
R-value H (OATP1B1 [3]): 7.49
R-value E (OATP1B1 [3]; Eq. 3 (Ki)): 2.87
Average (mean) R-value (OATP1B1 [3]): 4.02
SMILES: COC(=O)N[C@H](C(=O)N[C@@H](Cc1ccccc1)[C@@H](O)CN(Cc1ccc(-c2ccccn2)cc1)NC(=O)[C@@H](NC(=O)OC)C(C)(C)C)C(C)(C)C [Atazanavir]
Imax, maximum systemic plasma concentration of the inhibitor [5]: 4.47 µM
Fa, fraction of the inhibitor dose absorbed (maximum oral bioavailability) [5]: 0.68

Classification as OATP1B1 inhibitor (more than 50% inhibition of E17βG uptake) (OATP1B1 [1]): inhibitors
SMILES: COc1ccc2c(c1)c(CC(=O)O)c(C)n2C(=O)c1ccc(Cl)cc1 [Indomethacin]

Ki (OATP1B1 [2]): 9.52 µM
R-value B (OATP1B1 [3]; Eq. 2 (IC50), ka = 0.03, Fa = 1, International Transporter Consortium method): 1.21
R-value D (OATP1B1 [3]; Eq. 2 (IC50), ka = 0.1, Fa = 1): 1.54
R-value C (OATP1B1 [3]; Eq. 2 (IC50), ka = 0.1, Fa published value (lopinavir Fa = 1)): 1.49
R-value F (OATP1B1 [3]; Eq. 3 (Ki), ka = 0.03, Fa = 1): 1.37
R-value E (OATP1B1 [3]; Eq. 3 (Ki)): 1.34
R-value H (OATP1B1 [3]; Eq. 3 (Ki), ka = 0.1, Fa = 1, Hirano et al. method): 1.95
R-value G (OATP1B1 [3]; Eq. 3 (Ki), ka = 0.1, Fa published value (lopinavir Fa = 1)): 1.87
Range of the eight R-values A–H (OATP1B1 [3]): 1.19–1.95 and < 2
Average (mean) R-value (OATP1B1 [3]): 1.49
SMILES: CC(C)CN(C[C@@H](O)[C@H](Cc1ccccc1)NC(=O)O[C@H]1CCOC1)S(=O)(=O)c1ccc(N)cc1 [Amprenavir]
Imax, maximum systemic plasma concentration of the inhibitor [5]: 11.2 µM
Fa, fraction of the inhibitor dose absorbed (maximum oral bioavailability) [5]: 0.9

Classification as OATP1B1 inhibitor (more than 50% inhibition of E17βG uptake) (OATP1B1 [1]): inhibitors
SMILES: CNC(=O)c1cccnc1 [N-methylnicotinamide]

Classification as OATP1B1 inhibitor (more than 50% inhibition of E17βG uptake) (OATP1B1 [1]): inhibitors
SMILES: CCOc1nc2cccc(C(=O)O)c2n1Cc1ccc(-c2ccccc2-c2nnn[nH]2)cc1 [Candesartan]

Classification as OATP1B1 inhibitor (more than 50% inhibition of E17βG uptake) (OATP1B1 [1]): inhibitors
SMILES: CC(=O)Oc1ccc2c(c1)Oc1cc(OC(C)=O)ccc1C21OC(=O)c2cc(C(=O)O)ccc21 [5-CFDA]

SMILES: C[C@@H]1[C@H](O)[C@@H](C)/C=C/C=C/CC/C=C/C=C/C=C/C=C/C(O[C@H]2O[C@H](C)[C@@H](O)[C@H](N)[C@@H]2O)CC2O[C@](O)(CC(O)C(O)CCC(O)CC(O)CC(O)CC(=O)O[C@H]1C)CC(O)C2C(=O)O (stereo partly shown) [Nystatin]
Classification as OATP1B1 inhibitor (more than 50% inhibition of E17βG uptake) (OATP1B1 [1]): inhibitors

Classification as OATP1B1 inhibitor (more than 50% inhibition of E17βG uptake) (OATP1B1 [1]): inhibitors
SMILES: O=C(O)c1cc(/N=N/c2ccc(S(=O)(=O)Nc3ccccn3)cc2)ccc1O [Sulfasalazine]
